Data reported in patent publication US20200061062A1, “INHIBITORS OF HUMAN PHOSPHATIDYLINOSITOL 3-KINASE DELTA” (ICOS Corporation, priority 2000, published 2020).
Read-outs that look alike come from different tables or passages of the source.

What was measured:
PI3Kδ = PI3Kδ (Homo sapiens, UniProt O00329, S253N); assay: Biochemical assay of PI3K potency and selectivity using 20 μM ATP, Delta; design: His tag (pFastbac HTb vector) (N); FLAG; made in house; host or cells: Sf21 insect cells (baculovirus); conditions: 20 μM ATP; read-out: Delta IC50
Sequence of PI3Kδ (O00329 whole entry S253N): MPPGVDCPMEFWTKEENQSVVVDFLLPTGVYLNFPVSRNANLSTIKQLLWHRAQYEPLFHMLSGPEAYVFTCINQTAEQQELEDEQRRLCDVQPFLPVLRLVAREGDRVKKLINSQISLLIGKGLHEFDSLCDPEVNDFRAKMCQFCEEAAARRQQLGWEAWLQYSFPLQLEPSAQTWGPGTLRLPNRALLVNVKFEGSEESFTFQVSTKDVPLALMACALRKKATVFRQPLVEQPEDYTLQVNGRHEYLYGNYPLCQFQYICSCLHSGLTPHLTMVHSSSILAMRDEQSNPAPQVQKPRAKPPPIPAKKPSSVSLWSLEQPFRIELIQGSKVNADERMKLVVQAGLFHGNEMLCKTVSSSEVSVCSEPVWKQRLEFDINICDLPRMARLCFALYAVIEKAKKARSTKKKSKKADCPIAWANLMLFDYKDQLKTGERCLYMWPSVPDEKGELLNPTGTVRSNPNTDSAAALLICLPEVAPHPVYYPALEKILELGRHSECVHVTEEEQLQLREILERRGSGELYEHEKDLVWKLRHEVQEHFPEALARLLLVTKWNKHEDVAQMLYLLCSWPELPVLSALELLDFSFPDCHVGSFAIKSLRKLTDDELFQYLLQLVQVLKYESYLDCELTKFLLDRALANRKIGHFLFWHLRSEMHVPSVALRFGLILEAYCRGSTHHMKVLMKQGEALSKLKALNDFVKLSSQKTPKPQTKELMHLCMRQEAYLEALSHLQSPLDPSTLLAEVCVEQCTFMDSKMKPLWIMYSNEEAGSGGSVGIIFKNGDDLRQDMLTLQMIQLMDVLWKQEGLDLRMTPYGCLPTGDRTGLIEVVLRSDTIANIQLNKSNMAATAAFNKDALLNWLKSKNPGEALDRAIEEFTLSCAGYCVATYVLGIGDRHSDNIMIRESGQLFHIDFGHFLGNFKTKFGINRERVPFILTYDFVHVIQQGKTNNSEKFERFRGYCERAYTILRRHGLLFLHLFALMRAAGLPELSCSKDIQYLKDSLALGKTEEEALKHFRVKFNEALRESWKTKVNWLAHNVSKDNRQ
Sequence of PI3Kδ (P27986 whole entry partner): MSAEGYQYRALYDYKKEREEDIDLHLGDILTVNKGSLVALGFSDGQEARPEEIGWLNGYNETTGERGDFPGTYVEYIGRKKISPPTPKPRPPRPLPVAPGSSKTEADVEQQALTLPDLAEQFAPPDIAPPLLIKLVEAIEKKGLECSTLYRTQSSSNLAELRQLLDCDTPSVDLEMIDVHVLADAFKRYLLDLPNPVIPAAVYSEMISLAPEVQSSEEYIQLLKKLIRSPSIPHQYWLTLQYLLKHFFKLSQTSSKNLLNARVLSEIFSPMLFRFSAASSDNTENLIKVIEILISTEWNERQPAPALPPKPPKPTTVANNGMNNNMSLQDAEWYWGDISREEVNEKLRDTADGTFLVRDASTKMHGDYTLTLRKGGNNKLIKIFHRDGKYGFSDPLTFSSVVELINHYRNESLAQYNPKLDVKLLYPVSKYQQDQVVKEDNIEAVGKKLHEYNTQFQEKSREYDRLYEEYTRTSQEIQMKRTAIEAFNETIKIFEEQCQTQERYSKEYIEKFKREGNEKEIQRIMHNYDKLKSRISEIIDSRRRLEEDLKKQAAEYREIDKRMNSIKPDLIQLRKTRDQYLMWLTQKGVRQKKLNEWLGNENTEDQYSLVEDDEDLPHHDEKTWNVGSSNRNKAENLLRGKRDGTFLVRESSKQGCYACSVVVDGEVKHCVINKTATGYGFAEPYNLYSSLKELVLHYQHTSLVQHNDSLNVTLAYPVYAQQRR
From the text: (§1) Recombinant PI3K heterodimeric complexes consisting of a p110 catalytic subunit and a p85 regulatory subunit were overexpressed using the BAC-TO-BAC® HT baculovirus expression system (GIBCO/BRL), and then purified for use in biochemical assays. The four Class I PI 3-kinases were cloned into baculovirus vectors as follows: […]

PI3Kα = target: T1, PI3Kα (Homo sapiens, UniProt P42336); assay: Biochemical assay of PI3K potency and selectivity using 20 μM ATP, Alpha; conditions: for Alpha/Delta Ratio: ratio of IC50 values, > = hypothetical ratio with 100 μM substituted for the missing IC50; for IC50: read-out: Alpha IC50
T1 construct: His tag (pFastbac HTb vector) (N); FLAG; made in house; host or cells: Sf21 insect cells (baculovirus)
T1 sequence (P42336 whole entry): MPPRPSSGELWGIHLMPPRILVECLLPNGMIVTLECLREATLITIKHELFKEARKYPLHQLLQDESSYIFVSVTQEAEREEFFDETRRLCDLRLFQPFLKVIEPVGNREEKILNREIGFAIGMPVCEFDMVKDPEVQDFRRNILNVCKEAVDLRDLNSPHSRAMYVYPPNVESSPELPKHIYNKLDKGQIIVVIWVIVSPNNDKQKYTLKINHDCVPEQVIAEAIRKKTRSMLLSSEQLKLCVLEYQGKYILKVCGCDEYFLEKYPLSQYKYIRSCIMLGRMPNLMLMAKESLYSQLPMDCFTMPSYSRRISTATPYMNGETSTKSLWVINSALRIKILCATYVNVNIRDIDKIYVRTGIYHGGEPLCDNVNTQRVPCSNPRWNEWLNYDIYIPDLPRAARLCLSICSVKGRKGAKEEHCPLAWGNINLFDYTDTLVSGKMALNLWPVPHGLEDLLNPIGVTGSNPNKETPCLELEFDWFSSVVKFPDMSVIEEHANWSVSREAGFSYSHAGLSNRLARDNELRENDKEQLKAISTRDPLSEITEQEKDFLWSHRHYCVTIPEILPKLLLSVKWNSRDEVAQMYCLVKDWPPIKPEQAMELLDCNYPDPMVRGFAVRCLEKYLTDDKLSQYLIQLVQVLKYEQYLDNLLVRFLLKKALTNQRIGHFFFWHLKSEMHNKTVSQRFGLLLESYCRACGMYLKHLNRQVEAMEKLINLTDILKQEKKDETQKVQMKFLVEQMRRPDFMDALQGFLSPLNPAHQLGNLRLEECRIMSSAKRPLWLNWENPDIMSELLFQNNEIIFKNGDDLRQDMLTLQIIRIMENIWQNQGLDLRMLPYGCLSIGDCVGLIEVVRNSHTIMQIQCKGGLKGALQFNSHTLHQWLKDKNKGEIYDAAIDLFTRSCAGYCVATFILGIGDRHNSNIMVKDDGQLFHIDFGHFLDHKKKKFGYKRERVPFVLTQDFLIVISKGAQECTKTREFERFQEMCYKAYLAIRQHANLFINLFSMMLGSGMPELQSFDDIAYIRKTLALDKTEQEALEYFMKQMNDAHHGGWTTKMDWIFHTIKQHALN
T1 sequence (P27986 whole entry partner): as the sequence (P27986 whole entry partner) above
From the text: as §1

PI3Kβ = target: T2, PI3Kβ (Homo sapiens, UniProt P42338); assay: Biochemical assay of PI3K potency and selectivity using 20 μM ATP, Beta; conditions: 20 μM ATP; for Beta/Delta Ratio: ratio of IC50 values, > = hypothetical ratio with 100 μM substituted for the missing IC50; for IC50: read-out: Beta IC50; for remaining activity at 100 µM: read-out: Beta: percent activity remaining at 100 μM, 100 μM compound did not inhibit by at least 50%
T2 construct: His tag (pFastbac HTa vector) (N); FLAG (N); made in house; host or cells: Sf21 insect cells (baculovirus)
T2 sequence (P42338 whole entry): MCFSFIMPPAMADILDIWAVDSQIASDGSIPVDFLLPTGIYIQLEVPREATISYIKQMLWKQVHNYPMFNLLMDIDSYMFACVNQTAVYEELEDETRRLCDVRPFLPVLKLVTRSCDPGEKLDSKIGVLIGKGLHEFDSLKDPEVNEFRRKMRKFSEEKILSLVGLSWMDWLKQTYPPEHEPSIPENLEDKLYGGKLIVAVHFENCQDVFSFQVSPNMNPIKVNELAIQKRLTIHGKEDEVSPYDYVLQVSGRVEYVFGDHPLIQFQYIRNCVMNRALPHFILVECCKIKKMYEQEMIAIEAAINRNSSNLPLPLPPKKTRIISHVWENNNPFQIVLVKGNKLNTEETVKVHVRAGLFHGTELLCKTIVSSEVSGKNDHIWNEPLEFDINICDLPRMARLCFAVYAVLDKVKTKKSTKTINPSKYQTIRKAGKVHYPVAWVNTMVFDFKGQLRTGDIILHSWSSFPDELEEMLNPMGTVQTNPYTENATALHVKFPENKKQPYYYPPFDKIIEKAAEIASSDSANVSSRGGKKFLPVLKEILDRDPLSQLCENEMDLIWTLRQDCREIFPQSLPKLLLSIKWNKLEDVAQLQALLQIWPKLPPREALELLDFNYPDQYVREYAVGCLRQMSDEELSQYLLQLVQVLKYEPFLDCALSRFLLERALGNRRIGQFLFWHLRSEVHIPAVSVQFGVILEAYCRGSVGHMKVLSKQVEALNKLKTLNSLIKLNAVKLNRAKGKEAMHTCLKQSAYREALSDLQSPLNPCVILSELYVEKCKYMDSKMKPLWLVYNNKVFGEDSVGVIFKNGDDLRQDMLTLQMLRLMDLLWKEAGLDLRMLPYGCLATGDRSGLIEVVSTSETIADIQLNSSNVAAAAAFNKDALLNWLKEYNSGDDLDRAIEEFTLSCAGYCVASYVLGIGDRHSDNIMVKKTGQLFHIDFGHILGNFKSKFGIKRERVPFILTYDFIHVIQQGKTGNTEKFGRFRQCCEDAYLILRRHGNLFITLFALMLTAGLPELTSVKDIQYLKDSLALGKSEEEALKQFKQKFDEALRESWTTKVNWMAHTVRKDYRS
T2 sequence (P27986 whole entry partner): as the sequence (P27986 whole entry partner) above
Experimental: Recombinant PI3K heterodimeric complexes consisting of a p110 catalytic subunit and a p85 regulatory subunit were overexpressed using the BAC-TO-BAC® HT baculovirus expression system (GIBCO/BRL), and then purified for use in biochemical assays. The four Class I PI 3-kinases were cloned into baculovirus vectors as follows:
The 3× substrate for the HTS contained 0.6 mM Na2ATP, 0.10 mCi/mL γ-[^32P]ATP (NEN, Pittsburgh, Pa.), 6 μM PIP2/PS liposomes (Avanti Polar Lipids, Inc., […].), in 20 mM HEPES, pH 7.4.

[1] = tested on: Murine splenocytes (Balb/c); assay: B cell proliferation in response to cell surface IgM stimulation; assay type: cell-based; conditions: Mus musculus, Splenocyte; stimulated B cell proliferation; read-out: Mouse BCR Stim (EC50)
Experimental: In the above experiment, the B cells were stimulated using PANSORBIN®. The effect of D-000 on B cell proliferation response when they were stimulated through their cell surface IgM using anti-IgM antibody also was measured. Murine splenocytes (Balb/c) were plated into 96-well microtiter plates at 2×10^5 cells per well in 10% FBS/RPMI. Appropriate dilutions of test inhibitor in complete medium were added to the cells and the plates were incubated for 30-60 minutes prior to the addition of stimulus. Following the preincubation with test inhibitor an F(ab′)2 preparation of goat antibody specific for the μ-chain of mouse IgM was added to the wells at a final concentration of 25 μg/mL. The plates were incubated at 37° C. for 3 days and 1 μCi of [^3H]-thymidine was added to each well for the final four hours of culture. The plates were harvested onto fiber filters washed and the incorporation of radiolabel was determined using a beta counter (Matrix 96, Packard Instrument Co., Downers Grove, Ill.) and expressed as counts per minute (CPM).
Using the methods described in Examples 3-5, above, compounds of the invention were tested for inhibitory activity and potency in assays of stimulated B and T cell proliferation, neutrophil (PMN) migration, and neutrophil (PMN) elastase release. In Table 4, the values shown are effective concentrations of the compound (EC50; μM). Where no value is given, no assay was performed.

[2] = read-out: percent activity remaining at 100 μM, 20 μM ATP, 100 μM compound did not inhibit by at least 50%

SMILES | melting point | IC50 (PI3Kδ) [µM] | Alpha/Delta Ratio (PI3Kα; 20 μM ATP) | remaining activity at 100 µM (PI3Kα; [2]) [%] | Beta/Delta Ratio (PI3Kβ) | IC50 (PI3Kβ) [µM] | remaining activity at 100 µM (PI3Kβ) [%] | EC50 [1] [µM] | IC50 (PI3Kα; 20 μM ATP) [µM] | Alpha IC50 column: percent activity remaining at 100 μM (PI3Kα; 20 μM ATP, 100 μM compound did not inhibit by at least 50%, 100 µM) [%] | remaining activity at 100 µM (PI3Kα; read-out: percent activity remaining at 100 μM) [%]
Cc1ccccc1-n1c(Cn2cnc3c(N)ncnc32)nc2cccc(Cl)c2c1=O | 262 to 266.5 °C |  |  |  |  |  |  |  |  |  | 
COc1cc2nc(Cn3cnc4c(N)ncnc43)n(-c3ccccc3Cl)c(=O)c2cc1OC [Compound D-001, 2-(6-Aminopurin-9-ylmethyl)-3-(2-chlorophenyl)-6,7-dimethoxy-3H-quinazolin-4-one] | 281.5 to 282.7 °C (dec.) | 68 | >1.5 | 83 | 0.66 | 45 |  |  |  |  | 
Nc1ncnc2c1ncn2Cc1nc2ccc(Br)cc2c(=O)n1-c1ccccc1Cl [Compound D-002, 2-(6-Aminopurin-o-ylmethyl)-6-bromo-3-(2-chlorophenyl)-3H-quinazolin-4-one] | 284.2 to 284.7 °C (dec.) | 44 | >2.3 | 88 | >2.3 |  | 78 |  |  |  | 
Nc1ncnc2c1ncn2Cc1nc2ccc(Cl)cc2c(=O)n1-c1ccccc1Cl [Compound D-004, 2-(6-Aminopurin-9-ylmethyl)-6-chloro-3-(2-chlorophenyl)-3H-quinazolin-4-one] | 294.5 to 294.8 °C (dec.) | 64 | >2 | 93 | >1.6 |  | 89 |  |  |  | 
Nc1ncnc2c1ncn2Cc1nc2c(Cl)cccc2c(=O)n1-c1ccccc1Cl [Compound D-008, 2-(6-Aminopurin-9-ylmethyl)-8-chloro-3-(2-chlorophenyl)-3H-quinazolin-4-one] | 273.3 to 273.5 °C | 1.2 | >85 | 82 | 57 | 68 |  | 1 |  |  | 
COc1cc2nc(CSc3ncnc4[nH]cnc34)n(-c3ccccc3Cl)c(=O)c2cc1OC [Compound D-016, 3-(2-Chlorophenyl)-6,7-dimethoxy-2-(9H-purin-6-ylsulfanylmethyl)-3H-quinazolin-4-one] | 160 to 180 °C (dec.) | 40 | >2.5 | 91 | >3 |  | 81 |  |  |  | 
O=c1c2cc(Br)ccc2nc(CSc2ncnc3[nH]cnc23)n1-c1ccccc1Cl [Compound D-017, 6-Bromo-3-(2-chlorophenyl)-2-(9H-purin-6-ylsulfanylmethyl)-3H-quinazolin-4-one] | 212 to 242 °C (dec.) | 12 | >8 | 89 | >8 |  | 108 |  |  |  | 
O=c1c2cc(Cl)ccc2nc(CSc2ncnc3[nH]cnc23)n1-c1ccccc1Cl [Compound D-020, 6-Chloro-3-(2-chlorophenyl)-2-(9H-purin-6-ylsulfanylmethyl)-3H-quinazolin-4-one] | 237.1 to 238.2 °C (dec.) | 1.9 | >53 | 69 | >53 |  | 69 |  |  |  | 
O=c1c2ccc([N+](=O)[O-])cc2nc(CSc2ncnc3[nH]cnc23)n1-c1ccccc1Cl [Compound D-023, 3-(2-Chlorophenyl)-7-nitro-2-(9H-purin-6-ylsulfanylmethyl)-3H-quinazolin-4-one] | 218 to 218.3 °C (dec.) | 26 | >4 | 83 | >3.9 |  | 91 |  |  |  | 
COc1ccccc1-n1c(Cn2cnc3c(N)ncnc32)nc2cccc(Cl)c2c1=O [Compound D-033, 2-(6-Aminopurin-9-ylmethyl)-5-chloro-3-(2-methoxyphenyl)-3H-quinazolin-4-one] | 257 to 257.1 °C |  |  |  |  |  |  |  |  |  | 
COc1cccc(-n2c(CSc3ncnc4[nH]cnc34)nc3ccccc3c2=O)c1 [Compound D-040, 3-(3-methoxyphenyl)-2-(9H-purin-6-ylsulfanylmethyl)-3H-quinazolin-4-one] |  | 1.7 | >61 | 77 | >61 |  | 64 |  |  |  | 
O=c1c2ccccc2nc(CSc2ncnc3[nH]cnc23)n1-c1cccc(Cl)c1 [Compound D-041, 3-(3-chlorophenyl)-2-(9H-purin-6-ylsulfanylmethyl)-3H-quinazolin-4-one] |  | 4 | >25 | 67 | >25 |  | 65 |  |  |  | 
O=c1c2ccccc2nc(CSc2ncnc3[nH]cnc23)n1-c1ccncc1 [Compound D-042, 2-(9H-purin-6-ylsulfanylmethyl)-3-pyridin-4-yl-3H-quinazolin-4-one] |  | 3 | >32 | 70 | 8 | 25 |  |  |  |  | 
CC(=O)O.CN1CCN(n2c(CSc3ncnc4[nH]cnc34)nc3ccccc3c2=O)CC1 [Compound D-044, 3-(4-methylpiperazin-1-yl)-2-(9H-purin-6-ylsulfanylmethyl)-3H-quinazolin-4-one, acetate salt] |  | 4.2 | 25 |  | 15 | 61 |  |  | 105 |  | 
COc1ccccc1-n1c(CSc2ncnc3[nH]cnc23)nc2ccccc2c1=O [Compound D-046, 3-(2-methoxyphenyl)-2-(9H-purin-6-ylsulfanylmethyl)-3H-quinazolin-4-one] |  |  | >11 |  | 11 |  |  |  |  | 64 | 
CCCCn1c(Cn2cnc3c(N)ncnc32)nc2ccccc2c1=O [Compound D-050, 2-(6-aminopurin-9-ylmethyl)-3-butyl-3H-quinazolin-4-one] |  | 1.6 | >63 | 99 | 26 | 41 |  |  |  |  | 
CC(=O)O.Nc1ncnc2c1ncn2Cc1nc2ccccc2c(=O)n1N1CCOCC1 [Compound D-051, 2-(6-aminopurin-9-ylmethyl)-3-morpholin-4-yl-3H-quinazolin-4-one, acetate salt] |  | 3.3 | >31 |  | >31 |  | 57 |  |  |  | 89
O=c1c2ccccc2nc(CSc2ncnc3[nH]cnc23)n1-c1ccc(Cl)cc1 [Compound D-052, 3-(4-chlorophenyl)-2-(9H-purin-6-ylsulfanylmethyl)-3H-quinazolin-4-one] |  | 8 | 0.09 |  | >13 |  | 69 |  | 0.7 |  | 
